Read-outs that look alike come from different tables or passages of the source. One block for each molecule: values may come before it.
Legend:
Baf3/WT = Baf3/WT (Homo sapiens, UniProt P00519); experiment: MTT cell proliferation assay, Baf3/WT; format: cell-based; conditions: Table 1A, 24-72 hrs incubation, read-out: IC50 values obtained from MTT assay
Experimental: (§1) All the experimental compounds were evaluated for in vitro efficacy employing standard cell lines used for the screening of anti-cancer compounds.
(§2) In Vitro Studies of NRC-21T on BCR-abl Positive Cell Line K562 and Mutant Cell Lines Baf3/T315i, M351T, E255K and WT.
(§3) The stock solution was further diluted with the same cell culture medium and used in concentrations of 0.1 nm to 10 μm. Cell proliferation by MTT assay was done as follows. 1000 to 10,000 cells were seeded per well in 96-well plate and different concentrations of […] ranging from 10 μm to 0.1 nM were added in triplicates. After incubating the cells with NRC-21T for the required time period 24-72 hrs, 15 μl of 5 mg/ml MTT was added and incubated for additional 4 hours at 37° C. and 5% CO2. After 4 hrs, formazan crystals were dissolved in solubilizing buffer overnight at 37° C. Absorbance was measured on Elisa reader at dual wavelength of 570-630-nm. By MTT assay the IC50 values of the NRC21T were computed. […] (FIG. 3)

T315I cell Line = experiment: Survival time in SCID Mice injected with T315I cell line; format: in vivo; conditions: T315I cells i.v., 30 days dosing, NRC21T 200 mg/kg p.o, Ponatinib 10 mg/kg p.o
in vivo = conditions: both, Swiss Albino, mouse
[1] = tested on: BaF3/T315i mutant Leukemia cancer cells; experiment: Matrigel invasion assay; format: cell-based; conditions: matrigel transwell, 72 hrs, specified concentration
Baf3/T315I = Baf3/T315I (Homo sapiens, UniProt P00519, T315I, cells depend on it); experiment: MTT cell proliferation assay, Baf3/T315I; format: cell-based; conditions: read-out: IC50 values obtained from MTT assay
Experimental: as §1, §2, §3

Baf3/E255K = Baf3/E255K (Homo sapiens, UniProt P00519, E255K, cells depend on it); experiment: MTT cell proliferation assay, Baf3/E255K; format: cell-based; conditions: Table 1A, 24-72 hrs incubation, read-out: IC50 values obtained from MTT assay
Experimental: as §1, §2, §3

[2] = tested on: BCR-abl positive cell line K562; experiment: MTT cell proliferation assay, K562; format: cell-based; conditions: Homo sapiens, read-out: IC50 values obtained from MTT assay
Experimental: as §1, §2, §3

T315I induced tumour = experiment: Antagonism in T315I induced tumour in Nude Mice; format: in vivo; conditions: for Tumour volume after treatment (Mean ± SEM): daily oral, NRC21T 200 mg/kg, Ponatinib 50 mg/kg
Experimental: The study was carried out with 18 Nude Mice (9 Male+9 Female).
The cell line was inoculated into Nude Mice subcutaneously to the right hind limb flank at a strength of 1×10^6 cells/0.2 ml. Animals were observed daily for the appearance of tumour. The tumour volume was measured using the formula ½ l×w^2 (l=length of tumour & w=width of tumour). When the mean tumour volume was recorded above 400 mm^3, the treatment with the above drugs was started. The above drugs were administered orally daily for 30 days. Weights of Nude Mice were taken daily before dosing and tumour measurements were done on alternative days using digital Vernier caliper. Surviving animals were sacrificed after the dosing was complete for 30 days and the organs (tumour with skin and spleen) were collected.

Baf3/M351T = Baf3/M351T (Homo sapiens, UniProt P00519, M351T, cells depend on it); experiment: MTT cell proliferation assay, Baf3/M351T; format: cell-based; conditions: Table 1A, 24-72 hrs incubation, read-out: IC50 values obtained from MTT assay
Experimental: as §1, §2, §3

Structure (SMILES): Cc1ccc(C(=O)Nc2ccc(CN3CCN(C)CC3)c(C(F)(F)F)c2)cc1C#Cc1cnc2[nH]c(=O)ccc2c1 [NRC21T, 4-Methyl-N-[4-[(4-methylpiperazin-1-yl)methyl]-3-(trifluoromethyl)phenyl]-3-[2-(7-oxo-8H-1,8-naphthyridin-3-yl)ethynyl]benzamide]
GI50 (Baf3/WT): 11 nM
Mean Survival Time (Mean ± SEM) (T315I cell Line): 36 ± 0 days
MTD at 14 days (in vivo): > 2000 mg/kg
Percentage of Anti-invasion property [1]: 28%
GI50 (Baf3/T315I; Table 1A, Baf3/T315I, 24-72 hrs incubation): 14 nM
GI50 (Baf3/E255K): 16 nM
IC50 ([2]; Table 1A, 24-72 hrs incubation): 7 nM
Tumour volume after treatment (Mean ± SEM) (T315I induced tumour; 3rd Day): 721.18 ± 141.41 mm^3
Tumour volume after treatment (Mean ± SEM) (T315I induced tumour; 5th Day): 183.97 ± 8.66 mm^3
Tumour volume after treatment (Mean ± SEM) (T315I induced tumour; 7th Day): 106.59 ± 11.90 mm^3
Tumour volume after treatment (Mean ± SEM) (T315I induced tumour; 9th Day): 83.21 ± 8.83 mm^3
Tumour volume after treatment (Mean ± SEM) (T315I induced tumour; 11th Day): 48.88 ± 4.36 mm^3
Tumour volume after treatment (Mean ± SEM) (T315I induced tumour; 13th Day): 10.61 ± 2.3 mm^3
Initial tumour volume (Mean ± SEM) (T315I induced tumour; before treatment, NRC21T 200 mg/kg p.o, Ponatinib 50 mg/kg p.o groups): 921.35 ± 176.32 mm^3
GI50 (Baf3/M351T): 2 nM

Structure (SMILES): Cc1ccc(NC(=O)c2cccc(C(F)(F)F)c2)cc1C#Cc1cnc2[nH]c(=O)ccc2c1 [NRC-13T, N-[4-Methyl-3-[2-(7-oxo-8H-1,8-naphthyridin-3-yl)ethynyl]phenyl]-3-(trifluoromethyl)benzamide]
GI50 (Baf3/T315I; Table 1B, T315I): 1510 nM
IC50 ([2]; Table 1B): 9 nM

Structure (SMILES): Cc1ccc(NC(=O)c2cc(C(F)(F)F)cc(C(F)(F)F)c2)cc1C#Cc1cnc2[nH]c(=O)ccc2c1 [NRC-15T, N-[4-Methyl-3-[2-(7-oxo-8H-1,8-naphthyridin-3-yl)ethynyl]phenyl]-3,5-Bis(trifluoromethyl)benzamide]
GI50 (Baf3/T315I; Table 1B, T315I): 7690 nM
IC50 ([2]; Table 1B): 20 nM

Structure (SMILES): Cc1ccc(C(=O)Nc2cc(C(F)(F)F)cc(C(F)(F)F)c2)cc1C#Cc1cnc2[nH]c(=O)ccc2c1 [NRC-16T, N-[3,5-Bis(trifluoromethyl)phenyl]-4-methyl-3-[2-(7-oxo-8H-1,8-naphthyridin-3-yl)ethynyl]benzamide]
GI50 (Baf3/T315I; Table 1B, T315I): > 10000 nM

Structure (SMILES): Cc1ccc(C(=O)Nc2ccc(CN3CCN(C)CC3)c(C(F)(F)F)c2)cc1C#Cc1cnc2cccnn12 [Ponatinib, reference compound]
Mean Survival Time (Mean ± SEM) (T315I cell Line): 36 ± 0 days
Percentage of Anti-invasion property [1]: 12%

Now from value to molecule:

GI50 (Baf3/T315I; Table 1B, T315I): 1040 nM
IC50 ([2]; Table 1B): 8 nM
Structure (SMILES): Cc1ccc(C(=O)Nc2cccc(C(F)(F)F)c2)cc1C#Cc1cnc2[nH]c(=O)ccc2c1 [NRC-14T, 4-Methyl-3-[2-(7-oxo-8H-1,8-naphthyridin-3-yl)ethynyl]-N-[3-(trifluoromethyl)phenyl]benzamide]

GI50 (Baf3/T315I; Table 1B, T315I): 712 nM
IC50 ([2]; Table 1B): 21 nM
Structure (SMILES): Cc1ccc(C(=O)Nc2cc(CN3CCN(C)CC3)cc(C(F)(F)F)c2)cc1C#Cc1cnc2[nH]c(=O)ccc2c1 [NRC-17T, 4-Methyl-N-[3-[(4-methylpiperazin-1-yl)methyl]-5-(trifluoromethyl)phenyl]-3-[2-(7-oxo-8H-1,8-naphthyridin-3-yl)ethynyl]benzamide]

GI50 (Baf3/T315I; Table 1B, T315I): 228 nM
Structure (SMILES): Cc1cn(-c2cc(NC(=O)c3ccc(C)c(C#Cc4cnc5[nH]c(=O)ccc5c4)c3)cc(C(F)(F)F)c2)cn1 [NRC-18T, 4-Methyl-N-[3-(4-methylimidazol-1-yl)-5-(trifluoromethyl)phenyl]-3-[2-(7-oxo-8H-1,8-naphthyridin-3-yl)ethynyl]benzamide]

GI50 (Baf3/T315I; Table 1B, T315I): 334 nM
IC50 ([2]; Table 1B): 7 nM
Structure (SMILES): Cc1ccc(NC(=O)c2ccc(CN3CCN(C)CC3)c(C(F)(F)F)c2)cc1C#Cc1cnc2[nH]c(=O)ccc2c1 [NRC-19T, N-[4-Methyl-3-[2-(7-oxo-8H-1,8-naphthyridin-3-yl)ethynyl]phenyl]-4-[(4-methylpiperazin-1-yl)methyl]-3-(trifluoromethyl)benzamide]

GI50 (Baf3/T315I; Table 1B, T315I): 155 nM
IC50 ([2]; Table 1B): 33 nM
Structure (SMILES): Cc1ccc(C(=O)Nc2ccc(CN3CCN(C)CC3)c(C(F)(F)F)c2)cc1/C=C/c1cnc2[nH]c(=O)ccc2c1 [NRC-20T, 4-Methyl-N-[4-[(4-methylpiperazin-1-yl)methyl]-3-(trifluoromethyl)phenyl]-3-[(E)-2-(7-oxo-8H-1,8-naphthyridin-3-yl)vinyl]benzamide]

Source: patent US10047088B2, “1H-1,8-naphthyridin-2-ones as anti proliferative compounds” (NATCO PHARMA LIMITED, priority 2014, dated 2018)
